Assay results: patent US10351559B2, “Maleate salts of a B-RAF kinase inhibitor, crystalline forms, methods of preparation, and uses therefore” (BeiGene, Ltd., priority 2015, dated 2019)
Where a name gives a salt, the structure may show the parent alone.

Experiments:
[1] = hygroscopicity (moisture sorption) by DVS; format: physicochemical; conditions: exposed to 95% RH, DVS
Text: The free base of Compound 1 was obtained originally as an amorphous solid, which is slightly hygroscopic with 2.2% water gain from 0 to 80% RH. No form transformation was observed after dynamic vapor sorption (DVS).

[2] = Raf kinase enzymatic assay (HTRF)
[3] = biological target: T1, BTK (Homo sapiens, UniProt Q06187); test: HTRF KinEASE-TK kinase assay; format: biochemical
T1 construct: purchased Carna Biosciences
T1 sequence (Q06187 whole entry): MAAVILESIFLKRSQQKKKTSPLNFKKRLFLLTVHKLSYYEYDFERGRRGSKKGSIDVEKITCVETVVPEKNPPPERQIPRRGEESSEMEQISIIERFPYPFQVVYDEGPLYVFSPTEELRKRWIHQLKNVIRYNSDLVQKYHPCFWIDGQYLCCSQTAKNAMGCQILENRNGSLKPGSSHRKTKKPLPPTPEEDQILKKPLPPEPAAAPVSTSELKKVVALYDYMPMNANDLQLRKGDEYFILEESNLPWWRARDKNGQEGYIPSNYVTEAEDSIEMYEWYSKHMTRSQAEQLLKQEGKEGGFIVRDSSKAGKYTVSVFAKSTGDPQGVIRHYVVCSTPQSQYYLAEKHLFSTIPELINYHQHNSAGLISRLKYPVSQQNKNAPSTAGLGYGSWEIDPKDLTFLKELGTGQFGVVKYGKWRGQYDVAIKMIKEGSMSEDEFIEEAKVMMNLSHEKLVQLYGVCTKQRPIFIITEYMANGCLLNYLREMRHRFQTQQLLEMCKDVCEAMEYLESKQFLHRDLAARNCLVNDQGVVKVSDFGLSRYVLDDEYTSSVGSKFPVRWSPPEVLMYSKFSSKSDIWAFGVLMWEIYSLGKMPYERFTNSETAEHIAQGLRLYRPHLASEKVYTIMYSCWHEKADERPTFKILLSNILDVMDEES
Experimental: (§1) Crystalline Form A* of Compound 1 Sesqui-Maleate was tested against recombinant EGFR/EPHA2/BTK (from Carna Biosciences), ITK/TEC/SRC/PDGFR-beta/TXK/FLT3/VEGFR2/RET (from Life Technologies), and HER2 (aa676-1255, recombinant protein purified from insect expression system) in HTRF KinEASE-TK assay from Cisbio Bioassays according to the manufacturer's instructions. The assay was carried out in a reaction mixture containing kinases, ATP at KM concentration, biotinylated peptide substrate (61TK0BLC, Cisbio Bioassays) and Crystalline Form A* of Compound 1 Sesqui-Maleate. The kinase was incubated with Crystalline Form A* of Compound 1 Sesqui-Maleate at RT for 1 hr or 2 hr (for EGFR) and the reaction was initiated by the addition of ATP and substrate. After reaction, stop/detection solution was added according to the manufacture's instruction. The stop/detection solution contained Eu+ cryptate conjugated antiphosphotyrosine antibody (61T66kLB, CisBio Bioassays) and Streptavidin-XL665 (610SAXLB, CisBio Bioassays) in buffer containing 25 mM Tris pH7.4, 400 mM KF, 50 mM EDTA, 0.01% BSA, 0.01% Triton X-100. The TR-FRET signals (ratio of fluorescence emission at 665 nm over emission at 620 nm with excitation at 337 nm wavelength) were recorded on a PHERAstar FS plate reader (BMG Labtech) after 1 hr incubation. Phosphorylation of biotinylated peptide substrate led to the binding of both Eu+ cryptate conjugated antiphosphotyrosine antibody and streptaviding-XL665 to the biotinylated peptide. The close proximity of the donor (Eu+ cryptate) and acceptor (XL665) fluorophore led to a high degree of fluorescence resonance energy transfer from the donor fluorophore (at 620 nm) to the acceptor fluorophore (at 665 nm). The IC50 for Crystalline Form A* of Compound 1 Sesqui-Maleate was derived from fitting the dose-response % inhibition data to the four-parameter logistic model by Graphpad Prism software.

[4] = biological target: T2, EPHA2 (Homo sapiens, UniProt P29317); test: HTRF KinEASE-TK kinase assay; format: biochemical
T2 construct: purchased Carna Biosciences
T2 sequence (P29317 24-976): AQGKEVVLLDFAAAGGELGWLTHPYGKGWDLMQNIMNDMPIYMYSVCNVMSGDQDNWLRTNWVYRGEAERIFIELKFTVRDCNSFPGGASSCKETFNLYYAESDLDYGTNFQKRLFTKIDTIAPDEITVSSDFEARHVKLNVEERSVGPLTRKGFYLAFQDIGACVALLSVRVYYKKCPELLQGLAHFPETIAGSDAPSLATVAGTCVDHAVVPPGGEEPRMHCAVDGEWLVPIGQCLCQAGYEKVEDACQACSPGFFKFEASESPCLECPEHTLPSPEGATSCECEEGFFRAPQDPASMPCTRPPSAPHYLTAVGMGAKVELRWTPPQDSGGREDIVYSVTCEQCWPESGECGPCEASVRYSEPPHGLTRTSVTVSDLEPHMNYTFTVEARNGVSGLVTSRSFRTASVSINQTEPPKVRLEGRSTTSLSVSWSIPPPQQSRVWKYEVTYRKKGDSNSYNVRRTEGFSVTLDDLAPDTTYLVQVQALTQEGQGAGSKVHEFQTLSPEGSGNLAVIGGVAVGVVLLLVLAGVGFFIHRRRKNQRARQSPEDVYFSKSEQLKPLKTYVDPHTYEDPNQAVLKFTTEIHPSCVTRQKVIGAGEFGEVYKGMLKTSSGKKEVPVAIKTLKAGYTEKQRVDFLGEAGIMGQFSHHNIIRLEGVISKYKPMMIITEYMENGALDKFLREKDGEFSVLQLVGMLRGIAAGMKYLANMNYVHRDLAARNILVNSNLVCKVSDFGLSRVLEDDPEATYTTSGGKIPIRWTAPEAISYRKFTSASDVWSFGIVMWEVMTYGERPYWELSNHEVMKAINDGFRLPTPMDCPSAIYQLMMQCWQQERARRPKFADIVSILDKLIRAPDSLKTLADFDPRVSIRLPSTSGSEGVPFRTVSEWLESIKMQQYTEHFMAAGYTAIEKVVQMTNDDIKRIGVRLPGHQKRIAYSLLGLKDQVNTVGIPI
Experimental: as §1

[5] = biological target: T3, FLT3 (Homo sapiens, UniProt P36888); test: HTRF KinEASE-TK kinase assay; format: biochemical
T3 construct: purchased Life Technologies
T3 sequence (P36888 27-993): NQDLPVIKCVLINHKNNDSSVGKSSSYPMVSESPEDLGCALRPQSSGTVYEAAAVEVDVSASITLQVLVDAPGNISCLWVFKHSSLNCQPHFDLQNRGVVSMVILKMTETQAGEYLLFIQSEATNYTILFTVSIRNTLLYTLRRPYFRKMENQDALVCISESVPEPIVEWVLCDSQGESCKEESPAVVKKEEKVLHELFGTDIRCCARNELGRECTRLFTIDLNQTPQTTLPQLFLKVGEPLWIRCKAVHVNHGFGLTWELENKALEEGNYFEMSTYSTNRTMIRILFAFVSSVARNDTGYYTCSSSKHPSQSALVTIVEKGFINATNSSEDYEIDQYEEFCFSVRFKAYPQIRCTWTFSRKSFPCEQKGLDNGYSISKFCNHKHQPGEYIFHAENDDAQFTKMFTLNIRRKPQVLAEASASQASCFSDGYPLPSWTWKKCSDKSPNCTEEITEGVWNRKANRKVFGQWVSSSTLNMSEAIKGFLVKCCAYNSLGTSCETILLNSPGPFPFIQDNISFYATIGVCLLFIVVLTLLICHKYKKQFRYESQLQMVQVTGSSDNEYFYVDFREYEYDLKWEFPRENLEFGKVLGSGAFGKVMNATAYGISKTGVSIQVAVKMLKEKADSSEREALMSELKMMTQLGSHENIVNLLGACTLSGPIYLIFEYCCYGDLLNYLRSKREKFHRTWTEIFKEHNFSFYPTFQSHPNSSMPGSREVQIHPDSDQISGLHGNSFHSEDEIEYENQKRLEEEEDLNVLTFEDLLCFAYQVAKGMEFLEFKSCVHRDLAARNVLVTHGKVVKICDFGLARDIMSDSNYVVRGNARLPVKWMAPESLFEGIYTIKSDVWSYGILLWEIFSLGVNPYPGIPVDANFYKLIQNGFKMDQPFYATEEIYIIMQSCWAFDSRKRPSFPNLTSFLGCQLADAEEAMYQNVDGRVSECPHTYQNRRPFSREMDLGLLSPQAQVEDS
Experimental: as §1

[6] = biological target: T4, ITK (Homo sapiens, UniProt Q08881); test: HTRF KinEASE-TK kinase assay; format: biochemical
T4 construct: purchased Life Technologies
Experimental: as §1

[7] = biological target: T5, PDGFR-beta (Homo sapiens, UniProt P09619); test: HTRF KinEASE-TK kinase assay; format: biochemical
T5 construct: purchased Life Technologies
T5 sequence (P09619 33-1106): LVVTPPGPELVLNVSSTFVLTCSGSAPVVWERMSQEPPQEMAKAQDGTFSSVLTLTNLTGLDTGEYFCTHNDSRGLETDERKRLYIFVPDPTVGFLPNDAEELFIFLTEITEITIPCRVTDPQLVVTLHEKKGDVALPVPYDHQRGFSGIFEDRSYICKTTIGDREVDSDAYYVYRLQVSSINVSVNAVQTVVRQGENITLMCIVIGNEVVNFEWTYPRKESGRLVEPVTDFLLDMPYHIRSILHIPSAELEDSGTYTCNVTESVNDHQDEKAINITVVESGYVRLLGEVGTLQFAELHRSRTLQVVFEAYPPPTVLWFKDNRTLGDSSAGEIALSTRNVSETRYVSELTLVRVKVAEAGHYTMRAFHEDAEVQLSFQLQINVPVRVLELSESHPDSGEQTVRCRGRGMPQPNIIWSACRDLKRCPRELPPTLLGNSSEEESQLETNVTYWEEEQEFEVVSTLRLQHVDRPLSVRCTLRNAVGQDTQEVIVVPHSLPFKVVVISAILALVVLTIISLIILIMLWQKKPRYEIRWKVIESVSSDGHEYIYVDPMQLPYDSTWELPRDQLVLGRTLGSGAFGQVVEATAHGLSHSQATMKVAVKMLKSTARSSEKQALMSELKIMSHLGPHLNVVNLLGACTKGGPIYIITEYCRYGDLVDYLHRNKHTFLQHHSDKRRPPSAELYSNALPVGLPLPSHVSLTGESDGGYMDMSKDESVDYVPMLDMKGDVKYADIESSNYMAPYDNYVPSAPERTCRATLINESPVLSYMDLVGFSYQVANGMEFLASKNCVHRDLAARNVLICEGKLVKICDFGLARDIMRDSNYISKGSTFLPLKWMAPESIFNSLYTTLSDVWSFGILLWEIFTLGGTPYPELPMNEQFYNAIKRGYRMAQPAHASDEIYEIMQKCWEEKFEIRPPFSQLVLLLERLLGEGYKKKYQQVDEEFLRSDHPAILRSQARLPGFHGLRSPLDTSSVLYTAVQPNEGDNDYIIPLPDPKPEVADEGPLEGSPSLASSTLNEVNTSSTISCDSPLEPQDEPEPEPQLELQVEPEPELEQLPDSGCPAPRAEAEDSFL
Experimental: as §1

[8] = biological target: T6, RET (Homo sapiens, UniProt P07949); test: HTRF KinEASE-TK kinase assay; format: biochemical
T6 construct: purchased Life Technologies
Experimental: as §1

[9] = biological target: T7, SRC (Homo sapiens, UniProt P12931); test: HTRF KinEASE-TK kinase assay; format: biochemical
T7 construct: purchased Life Technologies
T7 sequence (P12931 whole entry): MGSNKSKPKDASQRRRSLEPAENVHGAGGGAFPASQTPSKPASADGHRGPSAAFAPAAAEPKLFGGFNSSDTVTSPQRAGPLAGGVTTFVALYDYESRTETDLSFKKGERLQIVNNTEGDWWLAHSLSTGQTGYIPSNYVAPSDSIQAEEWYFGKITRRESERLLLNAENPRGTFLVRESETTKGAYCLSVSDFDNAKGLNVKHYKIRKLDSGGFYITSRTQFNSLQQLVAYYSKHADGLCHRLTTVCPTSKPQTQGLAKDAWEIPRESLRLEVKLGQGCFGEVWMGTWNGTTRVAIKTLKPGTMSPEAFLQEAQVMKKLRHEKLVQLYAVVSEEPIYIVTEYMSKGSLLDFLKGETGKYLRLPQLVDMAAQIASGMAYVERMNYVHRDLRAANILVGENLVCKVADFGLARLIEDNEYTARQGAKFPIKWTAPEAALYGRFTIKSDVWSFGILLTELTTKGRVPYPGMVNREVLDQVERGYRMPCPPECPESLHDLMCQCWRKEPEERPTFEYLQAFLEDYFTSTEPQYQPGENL
Experimental: as §1

[10] = biological target: T8, TEC (Homo sapiens, UniProt P42680); test: HTRF KinEASE-TK kinase assay; format: biochemical
T8 construct: purchased Life Technologies
Experimental: as §1

[11] = biological target: T9, TXK (Homo sapiens, UniProt P42681); test: HTRF KinEASE-TK kinase assay; format: biochemical
T9 construct: purchased Life Technologies
T9 sequence (P42681 whole entry): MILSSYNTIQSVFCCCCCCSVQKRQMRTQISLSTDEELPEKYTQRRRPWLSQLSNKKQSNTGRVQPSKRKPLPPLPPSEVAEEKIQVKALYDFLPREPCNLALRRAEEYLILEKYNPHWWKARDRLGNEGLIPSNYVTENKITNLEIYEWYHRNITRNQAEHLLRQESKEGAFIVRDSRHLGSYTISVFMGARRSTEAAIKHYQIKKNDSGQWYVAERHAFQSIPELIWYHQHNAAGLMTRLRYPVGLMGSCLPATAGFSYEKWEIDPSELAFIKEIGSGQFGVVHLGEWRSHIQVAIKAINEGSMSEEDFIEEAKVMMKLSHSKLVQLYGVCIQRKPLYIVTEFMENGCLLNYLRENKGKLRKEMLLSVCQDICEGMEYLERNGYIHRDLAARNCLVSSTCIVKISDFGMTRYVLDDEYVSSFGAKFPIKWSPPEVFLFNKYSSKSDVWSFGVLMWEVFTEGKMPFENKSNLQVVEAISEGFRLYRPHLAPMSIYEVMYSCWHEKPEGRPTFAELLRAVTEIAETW
Experimental: as §1

[12] = system: A375 cells; test: CellTiter-Glo luminescent cell viability assay; format: cell-based; conditions: Homo sapiens, A-375, 72 h; A375, BRAF V600E, 3-day exposure, N=2; read-out: Compound 1 EC50 (mean ± SD)
Experimental: (§2) A375, Sk-Mel-28, HT29, Colo205, A431, and HCC827 cell lines were purchased from American Type Culture Collection. All the cell lines used in the cellular assays were cultured in the designated medium supplemented with 10% fetal bovine serum (FBS, Thermo Scientific), 100 units/mL penicillin (Gibco), 0.1 mg/mL streptomycin (Gibco) and in a humidified 37° C. environment with 5% CO2. Cell lines were reinstated from frozen stocks laid down within three passages from the original cells purchased and passaged no more than 30 times.
(§3) The growth-inhibitory activity of compounds in a panel of melanoma, colon, breast and lung cancer cells was determined using CellTiter-Glo luminescent cell viability assay (Promega). The number of cells seeded per well of a 96-well plate was optimized for each cell line to ensure logarithmic growth over the 3 days treatment period. Cells were left to attach for 16 hours and then treated with a 10-point dilution series in duplicate. Following a 3-day exposure to the compound, a volume of CellTiter-Glo reagent equal to the volume of cell culture medium present in each well was added. Mixture was placed on an orbital shaker for 2 minutes to allow cell lysing, followed by 10 minutes incubation at room temperature to allow development and stabilization of luminescent signal. Luminescent signal was measured using PHERAstar FS reader (BMG Labtech). EC50 values for cell viability were determined with GraphPad Prism software.

[13] = system: Colo-205 cells; test: CellTiter-Glo luminescent cell viability assay; format: cell-based; conditions: Homo sapiens, 72 h; Colo-205, BRAF V600E, 3-day exposure, N=2; read-out: Compound 1 EC50 (mean ± SD)
Experimental: as §2, §3

[14] = system: HT-29 cells; test: CellTiter-Glo luminescent cell viability assay; format: cell-based; conditions: Homo sapiens, 72 h; HT-29, BRAF V600E, 3-day exposure, N=2; read-out: Compound 1 EC50 (mean ± SD)
Experimental: as §2, §3

[15] = system: Sk-Mel-28 cells; test: CellTiter-Glo luminescent cell viability assay; format: cell-based; conditions: Homo sapiens, 72 h; Sk-Mel-28, BRAF V600E, 3-day exposure, N=2; read-out: Compound 1 EC50 (mean ± SD)
Experimental: as §2, §3

[16] = biological target: CYP2C8 (Homo sapiens, UniProt P10632); test: CYP inhibition; format: in vitro ADME

## O=C1CCc2c(Oc3ccc4c(c3)[C@@H]3[C@H](O4)[C@H]3c3nc4ccc(C(F)(F)F)cc4[nH]3)ccnc2N1 [5-(((1R,1aS,6bR)-1-(6-(trifluoromethyl)-1H-benzo[d]imidazol-2-yl)-1a,6b-dihydro-1H-cyclopropa[b]benzofuran-5-yl)oxy)-3,4-dihydro-1,8-naphthyridin-2(1H)-one sesqui-maleate salt]
[1]
  water uptake: 0.1801%
[2]; BRAF V600E (416-766), ATP at KM
  IC50: 26 nM
[2]; V600E mutant B-RAF
  enzyme inhibition: potent and reversible inhibitor
[3]
  enzyme inhibition: no inhibition
[3]; ATP at KM
  IC50: > 10000 nM
[4]
  enzyme inhibition: potently inhibits
[4]; ATP at KM
  IC50: 61 nM
[5]
  enzyme inhibition: potently inhibits
[5]; ATP at KM
  IC50: 25 nM
[6]
  enzyme inhibition: no inhibition
[6]; ATP at KM
  IC50: > 10000 nM
[7]
  enzyme inhibition: potently inhibits
[7]; ATP at KM
  IC50: 17 nM
[8]
  enzyme inhibition: potently inhibits
[8]; ATP at KM
  IC50: 18 nM
[9]
  enzyme inhibition: weak inhibition
[9]; ATP at KM
  IC50: 917 nM
[10]
  enzyme inhibition: no inhibition
[10]; ATP at KM
  IC50: > 10000 nM
[11]
  enzyme inhibition: weak inhibition
[11]; ATP at KM
  IC50: 4800 nM
[12]
  EC50: 137 ± 0.5 nM
[13]
  EC50: 147 ± 0.6 nM
[14]
  EC50: 138 ± 13 nM
[15]
  EC50: 251 ± 54 nM
[16]
  IC50: 1030 nM
